Consider 19 compounds from patent publication US20250312499A1, “KISSPEPTIN RECEPTOR (KISS1R) TARGETED THERAPEUTICS AND USES THEREOF” (priority 2024, published 2025).

The structures appear in SMILES notation. Square brackets hold non-standard residues; d marks the D form. Peptide text beside a SMILES is read from it. * marks the point of attachment. DOTA = O=C(O)CN1CCN(CC(=O)O)CCN(CC(=O)*)CCN(CC(=O)O)CC1; Gly(N-(3-F-4-Me-benzyl)) = Cc1ccc(CNCC(=O)*)cc1F; Butanoyl(4-(4-I-phenyl)) = O=C(CCCc1ccc(I)cc1)*; Propanoyl(3-(MeO(CH2CH2O)2)) = COCCOCCOCCC(=O)*; Butanoyl(4-(4-MePh)) = Cc1ccc(CCCC(=O)*)cc1; Api(1-amidino) = N=C(N)N1CCC(N)(C(=O)O)CC1; d2Nal = N[C@H](Cc1ccc2ccccc2c1)C(=O)O; dCya = N[C@H](CS(=O)(=O)O)C(=O)O; 4Pal = N[C@@H](Cc1ccncc1)C(=O)O; d4Pal = N[C@H](Cc1ccncc1)C(=O)O; Cha = N[C@@H](CC1CCCCC1)C(=O)O; 4Amb = NCc1ccc(C(=O)O)cc1; Octanoyl = CCCCCCCC(=O)*; Api = NC1(C(=O)O)CCNCC1; Ahx = NCCCCCC(=O)O; azaGly = NNC(=O)O; βAla = NCCC(=O)O; Sar = CNCC(=O)O

The target in this assay is human kisspeptin receptor (Homo sapiens (Human), UniProt Q969F8). Briefly: Human KISS1R binding assay (membrane competition binding). As to conditions: 90 min at room temperature; competition with 0.2 nM [125I]-metastin (45-54); Flp-In T-Rex 293 kisspeptin membranes; metal complexes nonradioactive Ga, In, Lu; read-out: hKiSSR Binding Ki (90 min). The method in brief: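 Membranes from tetracycline-induced (48 h) Flp-In T-Rex 293 cells expressing receptor, 5–10 μg, incubated 90 min at room temperature with 0.2 nM [125I]-metastin (45-54) and competitor (typically 0–10,000 nM) in Tris/Mg/Ca/EGTA/0.1% BSA, pH 7.4. Filtration, washing, counting; Ki by non-linear regression.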
Sequence of human kisspeptin receptor (Q969F8 whole entry): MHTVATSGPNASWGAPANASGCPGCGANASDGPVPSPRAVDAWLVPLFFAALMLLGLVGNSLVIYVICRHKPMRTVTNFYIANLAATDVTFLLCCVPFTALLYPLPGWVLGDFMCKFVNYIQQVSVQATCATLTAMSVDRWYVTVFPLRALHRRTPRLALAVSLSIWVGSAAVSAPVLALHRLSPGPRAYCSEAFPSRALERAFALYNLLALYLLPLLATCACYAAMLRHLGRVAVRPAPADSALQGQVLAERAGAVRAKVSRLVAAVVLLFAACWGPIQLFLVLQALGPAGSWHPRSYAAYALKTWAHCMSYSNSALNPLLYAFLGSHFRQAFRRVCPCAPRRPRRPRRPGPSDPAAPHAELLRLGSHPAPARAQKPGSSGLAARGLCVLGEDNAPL

As to `Cc1ccc(CNCC(=O)N2CCC(NC(=O)[C@H](CC(C)C)NC(=O)NNC(=O)[C@H](Cc3ccccc3)NC(=O)[C@@H](NC(=O)[C@H](CC(N)=O)NC(=O)[C@@H](Cc3ccc(O)cc3)NC(=O)CCCCCNC(=O)CN3CCN(CC(=O)O)CCN(CC(=O)O)CCN(CC(=O)O)CC3)[C@@H](C)O)(C(=O)N[C@@H](Cc3ccncc3)C(N)=O)CC2)cc1F` [Compound 291] ({DOTA-Ahx}-[dY]NTF[azaGly]L[Api](Gly(N-(3-F-4-Me-benzyl)))[4Pal]-NH2), the Ki (in general, the equilibrium dissociation constant of an inhibitor or competing ligand from its target) was less than 10 nM.

In the case of `COCCOCCOCCC(=O)N[C@@H](CCCCNC(=O)CN1CCN(CC(=O)O)CCN(CC(=O)O)CCN(CC(=O)O)CC1)C(=O)N[C@@H](CC(N)=O)C(=O)N[C@H](C(=O)N[C@@H](Cc1ccccc1)C(=O)NNC(=O)N[C@@H](CC(C)C)C(=O)NC1(C(=O)N[C@@H](Cc2c[nH]c3ccccc23)C(N)=O)CCN(C(=N)N)CC1)[C@@H](C)O` [Compound 264] ({Propanoyl(3-(MeO(CH2CH2O)2))}-K(DOTA)NTF[azaGly]L[Api(1-amidino)]W-NH2), the Ki was less than 10 nM.

Take `CC(=O)N[C@@H](Cc1ccccc1)C(=O)NNC(=O)N[C@@H](CC(C)C)C(=O)NC1(C(=O)N[C@@H](Cc2c[nH]c3ccccc23)C(N)=O)CCN(C(=O)CNCc2ccc(C)c(F)c2)CC1` [Compound 392] (Ac-F[azaGly]L[Api](Gly(N-(3-F-4-Me-benzyl)))W-NH2): the Ki was less than 10 nM. In the case of `Cc1ccc(CNCC(=O)N2CCC(NC(=O)[C@H](CC(C)C)NC(=O)NNC(=O)[C@H](Cc3ccccc3)NC(=O)[C@@H](NC(=O)[C@H](CC(N)=O)NC(=O)[C@@H](Cc3ccncc3)NC(=O)[C@@H](Cc3ccc(O)cc3)NC(=O)CCCCCNC(=O)CN3CCN(CC(=O)O)CCN(CC(=O)O)CCN(CC(=O)O)CC3)[C@@H](C)O)(C(=O)N[C@@H](Cc3c[nH]c4ccccc34)C(N)=O)CC2)cc1F` [Compound 31] ({DOTA-Ahx}-[dY][d4Pal]NTF[azaGly]L[Api](Gly(N-(3-F-4-Me-benzyl)))W-NH2), the inhibitory constant (Ki) was less than 10 nM.

As to `CSCC[C@H](NC(=O)c1ccc(CNC(=O)CN2CCN(CC(=O)O)CCN(CC(=O)O)CCN(CC(=O)O)CC2)cc1)C(=O)N[C@H](C(=O)NCc1ccc(C(=O)N[C@@H](CCSC)C(=O)N[C@H](C(=O)N[C@@H](CCCCNC(=O)CCCCC(=O)N[C@@H](CC(N)=O)C(=O)N[C@H](C(=O)N[C@@H](Cc2ccccc2)C(=O)NNC(=O)N[C@@H](CC(C)C)C(=O)NC2(C(=O)N[C@@H](Cc3c[nH]c4ccccc34)C(N)=O)CCN(C(=O)CNCc3ccc(C)c(F)c3)CC2)[C@@H](C)O)C(=O)O)C(C)C)cc1)C(C)C` [Compound 167], the Ki was less than 10 nM. As to `CNCC(=O)N1CCC(NC(=O)[C@H](CC(C)C)NC(=O)NNC(=O)[C@H](Cc2ccccc2)NC(=O)[C@@H](NC(=O)[C@H](CC(N)=O)NC(=O)[C@@H](Cc2ccc3ccccc3c2)NC(=O)[C@@H](Cc2ccc(O)cc2)NC(=O)CCCc2ccc(I)cc2)[C@@H](C)O)(C(=O)N[C@@H](Cc2c[nH]c3ccccc23)C(N)=O)CC1` [Compound 395] ({Butanoyl(4-(4-I-phenyl))}-[dY][d2Nal]NTF[azaGly]L[Api](Sar)W-NH2), the inhibition constant (Ki) is less than 10 nM.

Consider `Cc1ccc(CNCC(=O)N2CCC(NC(=O)[C@H](CC(C)C)NC(=O)NNC(=O)[C@H](Cc3ccccc3)NC(=O)[C@@H](CC(N)=O)NC(=O)[C@@H](CCC(=O)O)NC(=O)[C@@H](CCC(=O)O)NC(=O)[C@@H](CC(N)=O)NC(=O)[C@@H](CC(N)=O)NC(=O)CCNC(=O)CN3CCN(CC(=O)O)CCN(CC(=O)O)CCN(CC(=O)O)CC3)(C(=O)N[C@@H](Cc3c[nH]c4ccccc34)C(N)=O)CC2)cc1F` [Compound 15] ({DOTA-βAla}-[dN][dN][dE][dE][dN]F[azaGly]L[Api](Gly(N-(3-F-4-Me-benzyl)))W-NH2), for which the Ki was more than 100 nM. In the case of `Cc1ccc(CNCC(=O)N2CCC(NC(=O)[C@H](CC(C)C)NC(=O)NNC(=O)[C@H](CC3CCCCC3)NC(=O)c3ccc(CNC(=O)CN4CCN(CC(=O)O)CCN(CC(=O)O)CCN(CC(=O)O)CC4)cc3)(C(=O)N[C@@H](Cc3c[nH]c4ccccc34)C(N)=O)CC2)cc1F` [Compound 261] ({DOTA-4Amb}-[Cha][azaGly]L[Api](Gly(N-(3-F-4-Me-benzyl)))W-NH2) it was less than 10 nM; in that of `Cc1ccc(CNCC(=O)N2CCC(NC(=O)[C@H](CC(C)C)NC(=O)NNC(=O)[C@H](Cc3ccccc3)NC(=O)[C@@H](NC(=O)[C@H](CC(N)=O)NC(=O)[C@@H](Cc3c[nH]c4ccccc34)NC(=O)[C@@H](Cc3ccc(O)cc3)NC(=O)CCCCCNC(=O)[C@@H](CS(=O)(=O)O)NC(=O)CN3CCN(CC(=O)O)CCN(CC(=O)O)CCN(CC(=O)O)CC3)[C@@H](C)O)(C(=O)N[C@@H](Cc3c[nH]c4ccccc34)C(N)=O)CC2)cc1F` [Compound 115] ({DOTA}-[dCya][Ahx][dY][dW]NTF[azaGly]L[Api](Gly(N-(3-F-4-Me-benzyl)))W-NH2), less than 10 nM. As for `Cc1ccc(CNCC(=O)N2CCC(NC(=O)[C@H](CC(C)C)NC(=O)NNC(=O)[C@H](Cc3ccccc3)NC(=O)CCCCCNC(=O)[C@H](Cc3ccc(O)cc3)NC(=O)CNC(=O)CN3CCN(CC(=O)O)CCN(CC(=O)O)CCN(CC(=O)O)CC3)(C(=O)N[C@@H](Cc3c[nH]c4ccccc34)C(N)=O)CC2)cc1F` [Compound 305] ({DOTA}-GY[Ahx]F[azaGly]L[Api](Gly(N-(3-F-4-Me-benzyl)))W-NH2), the Ki is less than 10 nM.

Take `Cc1ccc(CNCC(=O)N2CCC(NC(=O)[C@H](CC(C)C)N[C@H](CNC(=O)[C@H](Cc3ccccc3)NC(=O)CCCCCNC(=O)CN3CCN(CC(=O)O)CCN(CC(=O)O)CCN(CC(=O)O)CC3)C(F)(F)F)(C(=O)N[C@@H](Cc3c[nH]c4ccccc34)C(N)=O)CC2)cc1F` [Compound 147]: the Ki is more than 100 nM.

For the compound `Cc1ccc(CNCC(=O)N2CCC(NC(=O)[C@H](CC(C)C)NC(=O)NNC(=O)[C@H](Cc3ccccc3)NC(=O)[C@@H](NC(=O)[C@H](CC(N)=O)NC(=O)[C@@H](Cc3c[nH]c4ccccc34)NC(=O)[C@@H](Cc3ccc(O)cc3)NC(=O)CCCCCNC(=O)CN3CCN(CC(=O)O)CCN(CC(=O)O)CCN(CC(=O)O)CC3)[C@@H](C)O)(C(=O)N[C@@H](Cc3ccncc3)C(N)=O)CC2)cc1F` [Compound 105] ({DOTA-Ahx}-[dY][dW]NTF[azaGly]L[Api](Gly(N-(3-F-4-Me-benzyl)))[4Pal]-NH2), the inhibition constant Ki was less than 10 nM. As for `Cc1ccc(CNCC(=O)N2CCC(NC(=O)c3cc(OCCNC(=O)[C@H](Cc4ccccc4)NC(=O)CN4CCC(NC(=O)CN5CCN(CC(=O)O)CCN(CC(=O)O)CCN(CC(=O)O)CC5)CC4)cc(-c4ccccc4)c3)(C(=O)N[C@@H](Cc3c[nH]c4ccccc34)C(N)=O)CC2)cc1F` [Compound 215], the inhibitory constant (Ki) is more than 100 nM. Regarding `CCCCCCCC(=O)N[C@H](Cc1ccc(O)cc1)C(=O)N[C@@H](CCCCNC(=O)CN1CCN(CC(=O)O)CCN(CC(=O)O)CCN(CC(=O)O)CC1)C(=O)N[C@@H](CC(N)=O)C(=O)N[C@H](C(=O)N[C@@H](Cc1ccccc1)C(=O)NNC(=O)N[C@@H](CC(C)C)C(=O)NC1(C(=O)N[C@@H](Cc2c[nH]c3ccccc23)C(N)=O)CCN(C(=O)CNCc2ccc(C)c(F)c2)CC1)[C@@H](C)O` [Compound 181] (Octanoyl-[dY]K(DOTA)NTF[azaGly]L[Api](Gly(N-(3-F-4-Me-benzyl)))W-NH2), the Ki was less than 10 nM.

Regarding `Cc1ccc(CNCC(=O)N2CCC(NC(=O)c3cc(OCCNC(=O)[C@H](Cc4ccccc4)NC(=O)CCCCCNC(=O)CN4CCN(CC(=O)O)CCN(CC(=O)O)CCN(CC(=O)O)CC4)c(-c4ccccc4)cc3C)(C(=O)N[C@@H](Cc3c[nH]c4ccccc34)C(N)=O)CC2)cc1F` [Compound 282], the Ki is more than 100 nM. With `Cc1ccc(CNCC(=O)N2CCC(NC(=O)[C@H](CC(C)C)NC(=O)NNC(=O)[C@H](Cc3ccccc3)NC(=O)[C@@H](NC(=O)[C@H](CC(N)=O)NC(=O)[C@@H](Cc3ccc4ccccc4c3)NC(=O)[C@@H](Cc3ccc(O)cc3)NC(=O)CCCCCNC(=O)CN3CCN(CC(=O)O)CCN(CC(=O)O)CCN(CC(=O)O)CC3)[C@@H](C)O)(C(=O)N[C@@H](Cc3c[nH]c4ccccc34)C(N)=O)CC2)cc1F` [Compound 304] ({DOTA-Ahx}-[dY][d2Nal]NTF[azaGly]L[Api](Gly(N-(3-F-4-Me-benzyl)))W-NH2), the Ki was less than 10 nM. Consider `CSCC[C@H](NC(=O)c1ccc(CNC(=O)CN2CCN(CC(=O)O)CCN(CC(=O)O)CCN(CC(=O)O)CC2)cc1)C(=O)N[C@@H](Cc1c[nH]c2ccccc12)C(=O)N[C@@H](CCCCNC(=O)CCCCC(=O)N[C@@H](CC(N)=O)C(=O)N[C@H](C(=O)N[C@@H](Cc1ccccc1)C(=O)NNC(=O)N[C@@H](CC(C)C)C(=O)NC1(C(=O)N[C@@H](Cc2c[nH]c3ccccc23)C(N)=O)CCN(C(=O)CNCc2ccc(C)c(F)c2)CC1)[C@@H](C)O)C(=O)O` [Compound 168], for which the Ki was less than 10 nM. For the compound `Cc1ccc(CCCC(=O)NCCCC[C@@H](NC(=O)CCCCCNC(=O)CN2CCN(CC(=O)O)CCN(CC(=O)O)CCN(CC(=O)O)CC2)C(=O)N[C@H](Cc2ccc(O)cc2)C(=O)N[C@H](Cc2ccc3ccccc3c2)C(=O)N[C@@H](CC(N)=O)C(=O)N[C@H](C(=O)N[C@@H](Cc2ccccc2)C(=O)NNC(=O)N[C@@H](CC(C)C)C(=O)NC2(C(=O)N[C@@H](Cc3c[nH]c4ccccc34)C(N)=O)CCN(C(=N)N)CC2)[C@@H](C)O)cc1` [Compound 335] ({DOTA-Ahx}-[dK](Butanoyl(4-(4-MePh)))[dY][d2Nal]NTF[azaGly]L[Api(1-amidino)]W-NH2), the Ki was less than 10 nM.

As for `Cc1ccc(CNCC(=O)N2CCC(NC(=O)[C@H](CC(C)C)NC(=O)NNC(=O)[C@H](Cc3ccccc3)NC(=O)CCCCCNC(=O)[C@H](Cc3ccc(O)cc3)NC(=O)CNC(=O)c3ccc(CNC(=O)CN4CCN(CC(=O)O)CCN(CC(=O)O)CCN(CC(=O)O)CC4)cc3)(C(=O)N[C@@H](Cc3c[nH]c4ccccc34)C(N)=O)CC2)cc1F` [Compound 176] ({DOTA-4Amb}-GY[Ahx]F[azaGly]L[Api](Gly(N-(3-F-4-Me-benzyl)))W-NH2), the Ki was less than 10 nM.
